Data on two compounds can be found in paper PMC4269767, “Ligand Binding Modulates the Structural Dynamics and Compactness of the Major Birch Pollen Allergen” (Biophysical Journal, 2014).

Structures are written as SMILES. Structures can show the parent of a compound that is named as a salt.

Experiment [1] deals with T1, Bet v 1.0101 (Betula pendula, UniProt P15494).
T1 construct: gene BETVIA
T1 sequence (P15494 2-160): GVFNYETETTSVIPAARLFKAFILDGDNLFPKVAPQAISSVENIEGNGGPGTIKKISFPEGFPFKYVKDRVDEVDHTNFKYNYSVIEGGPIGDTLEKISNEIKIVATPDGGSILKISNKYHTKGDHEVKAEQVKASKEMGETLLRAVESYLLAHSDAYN
In words: 1H-15N HSQC NMR titration; PFG diffusion NMR; relaxation dispersion. The format is binding.

Experiment [2] concerns the target T1, Bet v 1.0101. As to the kind of experiment: crystal structure (soaked); 1H-15N HSQC NMR titration; relaxation dispersion. The format is binding.

On to `CCCCC(CC)CCC(CC(C)C)OS(=O)(=O)O` (centres unmarked) [STS, sodium tetradecyl sulfate], for which binding at Bet v 1.0101 [1] was characterised by a dissociation constant (Kd) of 1 µM.
Turning to `CCCCCCCCCCCCOS(=O)(=O)O` [SDS, sodium dodecyl sulfate], the Kd (in general, the free concentration of one partner at which half of the binding sites on the other are occupied at equilibrium, for simple one-to-one binding) on Bet v 1.0101 [2] came out at 7 µM.
